Converted amounts (≈) assume the structure as drawn.
Key:
Enterobacter [1] = assay: In vitro antibacterial activity against Enterobacter relative to thienamycin; assay type: functional
Staphylococcus aureus [2] = assay: In vitro antibacterial activity against Staphylococcus aureus (4) relative to Thienamycin (1); assay type: functional
Enterococcus [3] = assay: In vitro antibacterial activity against Enterococcus relative to thienamycin; assay type: functional
Serratia [4] = assay: In vitro antibacterial activity against Serratia relative to thienamycin; assay type: functional
Proteus [5] = assay: In vitro antibacterial activity against Proteus relative to thienamycin; assay type: functional, Proteus sp.
Escherichia coli [6] = assay: In vitro antibacterial activity against Escherichia coli relative to thienamycin; assay type: functional
Klebsiella [7] = assay: In vitro antibacterial activity against Klebsiella relative to thienamycin; assay type: functional
[8] = molecular target: T1, Dipeptidase 1 (Sus scrofa) (UniProt P22412); assay: Susceptibility of compound towards porcine Dehydropeptidase-1 relative to imipenem as […] was calculated
T1 sequence (whole entry): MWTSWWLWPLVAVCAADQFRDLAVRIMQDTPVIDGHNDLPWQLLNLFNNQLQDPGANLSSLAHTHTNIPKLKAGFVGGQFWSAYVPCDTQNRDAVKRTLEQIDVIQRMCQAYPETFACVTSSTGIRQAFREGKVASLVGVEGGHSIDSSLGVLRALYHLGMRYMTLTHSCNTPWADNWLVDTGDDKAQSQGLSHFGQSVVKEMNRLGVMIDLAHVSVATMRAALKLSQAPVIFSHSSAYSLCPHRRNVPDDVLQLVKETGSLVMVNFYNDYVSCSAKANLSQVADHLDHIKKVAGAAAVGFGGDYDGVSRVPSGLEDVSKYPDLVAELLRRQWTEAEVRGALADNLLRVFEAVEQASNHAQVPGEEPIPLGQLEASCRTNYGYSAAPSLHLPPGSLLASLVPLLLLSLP

Pseudomonas [9] = assay: In vitro antibacterial activity against Pseudomonas relative to thienamycin; assay type: functional
Staphylococcus aureus [10] = assay: In vitro antibacterial activity against Staphylococcus aureus relative to thienamycin; assay type: functional
Proteus [11] = assay: In vitro antibacterial activity against Proteus relative to Thienamycinv; assay type: functional, Proteus sp.
Klebsiella [12] = assay: Minimum inhibitory concentration required for the antibacterial activity against Klebsiella; assay type: functional
Staphylococcus aureus [13] = assay: Minimum inhibitory concentration required for the antibacterial activity against Staphylococcus aureus; assay type: functional
Enterococcus [14] = assay: Minimum inhibitory concentration required for the antibacterial activity against Enterococcus; assay type: functional
Escherichia coli [15] = assay: Minimum inhibitory concentration required for the antibacterial activity against Escherichia coli; assay type: functional
Proteus [16] = assay: Minimum inhibitory concentration required for the antibacterial activity against Proteus; assay type: functional, Proteus sp.
Pseudomonas [17] = assay: Minimum inhibitory concentration required for the antibacterial activity against Pseudomonas relative to Thienamycin (1); assay type: functional
Enterobacter [18] = assay: Minimum inhibitory concentration required for the antibacterial activity against Enterobacter; assay type: functional
Serratia [19] = assay: Minimum inhibitory concentration required for the antibacterial activity against Serratia; assay type: functional

Structure (SMILES) | Relative potency (Enterobacter [1]) | Relative potency (Staphylococcus aureus [2]) | Relative potency (Enterococcus [3]) | Relative potency (Serratia [4]) | Relative potency (Proteus [5]) | Relative potency (Escherichia coli [6]) | Relative potency (Klebsiella [7]) | Susceptibility [8] | Relative potency (Pseudomonas [9]) | Relative potency (Staphylococcus aureus [10]) | Relative potency (Proteus [11]) | MIC (Klebsiella [12]) [µg/mL] | MIC (Staphylococcus aureus [13]) [µg/mL] | MIC (Enterococcus [14]) [µg/mL] | MIC (Escherichia coli [15]) [µg/mL] | MIC (Proteus [16]) [µg/mL] | MIC (Pseudomonas [17]) [µg/mL] | MIC (Enterobacter [18]) [µg/mL] | MIC (Serratia [19]) [µg/mL]
CO[C@@]1(NC(=O)Cc2cccs2)C(=O)N2C(C(=O)O)=C(COC(N)=O)CS[C@@H]21 [CEFOXITIN] | 0.03 | 0.03 | 0.06 | 0.3 | 0.6 | 0.1 | 0.04 |  |  |  |  |  |  |  |  |  |  |  | 
C[C@@H](O)[C@H]1C(=O)N2C(C(=O)[O-])=C(c3ccc(C[n+]4ccc(CCS(=O)(=O)[O-])cc4)cc3)C[C@H]12.[K+] | 7 | 0.4 | 4.3 | 10.6 | 17.1 | 5.7 | 1.1 | 0.06 | 0.04 |  |  |  |  |  |  |  |  |  | 
CSCc1ccc[n+](Cc2ccc(C3=C(C(=O)[O-])N4C(=O)[C@H]([C@@H](C)O)[C@H]4C3)cc2)c1 | 10.6 | 1.9 | 19.7 | 29.9 | 6.5 | 6.1 | 3.7 | 0.05 | 0.08 |  |  |  |  |  |  |  |  |  | 
CSc1ccc[n+](Cc2ccc(C3=C(C(=O)[O-])N4C(=O)[C@H]([C@@H](C)O)[C@H]4C3)cc2)c1 | 11.3 | 2.6 | 10.6 | 19.7 | 9.2 | 4.3 | 3.7 | 0.06 | 0.08 |  |  |  |  |  |  |  |  |  | 
C[C@@H](O)[C@H]1C(=O)N2C(C(=O)O)=C(SCCNC=N)C[C@H]12.O [IMIPENEM] | 1.8 | 1.8 | 1.5 | 1.8 | 1.6 | 1.6 | 1.5 | 0.85 | 4 |  |  |  |  |  |  |  |  |  | 
C[C@@H](O)[C@H]1C(=O)N2C(C(=O)[O-])=C(c3ccc(C[n+]4cccc(C(=O)[O-])c4)cc3)C[C@H]12.[K+] | 12.1 | 0.6 | 5.3 | 27.9 | 27.9 | 6.1 | 2 |  | 0.08 |  |  |  |  |  |  |  |  |  | 
C[C@@H](O)[C@H]1C(=O)N2C(C(=O)[O-])=C(c3ccc(C[n+]4cccc(CSCCC#N)c4)cc3)C[C@H]12 | 8.6 | 1 | 8 | 14.9 | 7 | 8 | 4.6 | 0.05 | 0.08 |  |  |  |  |  |  |  |  |  | 
C[C@@H](O)[C@H]1C(=O)N2C(C(=O)[O-])=C(c3ccc(C[n+]4ccc(CN)cc4)cc3)C[C@H]12 | 2.6 | 0.5 | 7 | 6.1 | 4.3 | 1.7 | 0.8 | 0.04 | 0.05 |  |  |  |  |  |  |  |  |  | 
C[C@@H](O)[C@H]1C(=O)N2C(C(=O)[O-])=C(c3ccc(C[n+]4cccc(C(=O)N(C)C)c4)cc3)C[C@H]12 | 3.5 | 0.3 | 5.7 | 4 | 4.6 | 2.3 | 1.1 | 0.05 | 0.04 |  |  |  |  |  |  |  |  |  | 
C[C@@H](O)[C@H]1C(=O)N2C(C(=O)O)=C(c3ccc(CN4CCOCC4)cc3)C[C@H]12 | 5.3 |  | 8.6 | 8 |  | 3.5 | 1.4 | 0.13 | 0.03 | 0.6 | 10.6 |  |  |  |  |  |  |  | 
C[C@@H](O)[C@H]1C(=O)N2C(C(=O)O)=C(SCCN)C[C@H]12 [THIENAMYCIN] |  |  |  |  |  |  |  | 1 |  |  |  | 0.88 (≈ 3.23 µM) | 0.03 (≈ 0.11 µM) | 3.6 (≈ 13.2 µM) | 0.37 (≈ 1.36 µM) | 1.9 (≈ 6.98 µM) | 1.79 (≈ 6.57 µM) | 0.67 (≈ 2.46 µM) | 0.93 (≈ 3.42 µM)
C[C@@H](O)[C@H]1C(=O)N2C(C(=O)[O-])=C(c3ccc(C[n+]4ccc(CS(=O)(=O)[O-])cc4)cc3)C[C@H]12.[K+] | 9.2 | 0.5 | 3.5 | 9.8 | 9.8 | 6.5 | 1.6 | 0.06 | 0.04 |  |  |  |  |  |  |  |  |  | 
Cc1cc[n+](Cc2ccc(C3=C(C(=O)[O-])N4C(=O)[C@H]([C@@H](C)O)[C@H]4C3)cc2)cc1 | 9.2 | 1.1 | 14.9 | 22.6 | 12.1 | 4.6 | 2.8 | 0.06 | 0.1 |  |  |  |  |  |  |  |  |  | 
